# Source: patent publication US7897582B2, “Oligonucleotide compositions and methods for the modulation of the expression of B7 protein” (Isis Pharmaceuticals, Inc., priority 2003, dated 2011)
# Strand notation (5' to 3'): a small letter for the sugar, then the base; units joined by * are phosphorothioate-linked, units joined directly phosphodiester-linked; [ ] holds rarer units or linkages, { } end groups; capitals alone tell only the bases. e = 2'-O-(2-methoxyethyl) (MOE); d = 2'-deoxy (DNA)
# How the values were obtained:
# [1] = mouse, in vivo
# Protocol: Antisense oligonucleotides (ASOs) were dissolved in saline and used to intratracheally dose mice every day, four times per day, from days 15-26 of the OVA sensitization and challenge protocol. Specifically, the mice were anesthetized with isofluorane and placed on a board with the front teeth hung from a line. The nose was covered and the animal's tongue was extended with forceps and […] of various doses of ASO, or an equivalent volume of saline (control) was placed at the back of the tongue until inhaled into the lung.
# B7-2 = B7-2 expression in antigen presenting cells (blood monocytes with IL-4 and GM-CSF), flow cytometry; type: cell-based, human; conditions: FIG. 6
# Protocol: The ability of ISIS 10373 to inhibit expression from the native B7-2 gene in antigen presenting cells (APCs) was evaluated as follows.
# Monocytes were cultured and treated with oligonucleotides as follows. For dendritic cells, EDTA-treated blood was layered onto Polymorphprep™ (1.113 g/mL; Nycomed, Oslo, Norway) and sedimented at 500×g for 30 minutes at 20° C. Mononuclear cells were harvested from the interface. Cells were washed with PBS, with serum-free RPMI media (Moore et al., N.Y. J. Med., 1968, 68, 2054) and then with RPMI containing 5% fetal bovine serum (FBS). Monocytes were selected by adherence to plastic cell culture cell culture dishes for 1 h at 37° C. After adherence, cells were treated with oligonucleotides in serum-free RPMI containing Lipofectin™ (8 μg/mL). After 4 hours, the cells were washed. […] Cells were incubated for 48 hours, after which cell surface expression of various molecules was measured by flow cytometry.
# (§1) Mononuclear cells isolated from fresh blood were treated with oligonucleotide in the presence of cationic lipid to promote cellular uptake. […] Expression of B7-2 protein was measured by flow cytometry according to the methods of Example 2. […]
# ICAM-1 = ICAM-1 expression in antigen presenting cells, flow cytometry; type: cell-based, human
# Protocol: (§2) Monocytes were cultured and treated with oligonucleotides as follows. For dendritic cells, EDTA-treated blood was layered onto Polymorphprep™ (1.113 g/mL; Nycomed, Oslo, Norway) and sedimented at 500×g for 30 minutes at 20° C. Mononuclear cells were harvested from the interface. Cells were washed with PBS, with serum-free RPMI media (Moore et al., N.Y. J. Med., 1968, 68, 2054) and then with RPMI containing 5% fetal bovine serum (FBS). Monocytes were selected by adherence to plastic cell culture cell culture dishes for 1 h at 37° C. After adherence, cells were treated with oligonucleotides in serum-free RPMI containing Lipofectin™ (8 μg/mL). After 4 hours, the cells were washed. Then RPMI containing 5% FBS and oligonucleotide was added to cells along with interleukin-4 (IL-4; R&D Systems, Minneapolis, Minn.) (66 ng/mL) and granulocyte-macrophage colony-stimulating factor (GM-CSF; R&D Systems, Minneapolis, Minn.) (66 ng/mL) to stimulate differentiation (Romani et al., J. Exp. Med., 1994, 180, 83, 1994). Cells were incubated for 48 hours, after which cell surface expression of various molecules was measured by flow cytometry.
# as §1
# CD4+ T cells = test: T cell proliferation assay, [3H]thymidine incorporation, oligonucleotide-treated APCs plus CD4+ T cells; type: cell-based, human; conditions: APCs treated before cytokine induction; FIG. 7
# Protocol: The ability of ISIS 2302 and ISIS 10373 to inhibit T cell proliferation was evaluated as follows. Monocytes treated with oligonucleotide and cytokines (as in Example 6) were used as antigen presenting cells in a T cell proliferation assay. The differentiated monocytes were combined with CD4+ T cells from a separate donor. After 48 hours, proliferation was measured by [^3H]thymidine incorporation.
# For T cell proliferation assays, cells were isolated from EDTA-treated whole blood as described above, except that a faster migrating band containing the lymphocytes was harvested from just below the interface. Cells were washed as described in Example 6 after which erythrocytes were removed by NH4Cl lysis. T cells were purified using a T cell enrichment column (R&D Systems, Minneapolis, Minn.) essentially according to the manufacturer's directions. CD4+ T cells were further enriched from the entire T cell population by depletion of CD8+ cells with anti-CD8-conjugated magnetic beads (AMAC, Inc., Westbrook, Me.) according to the manufacturer's directions. T cells were determined to be >80% CD4+ by flow cytometry using Cy-chrome-conjugated anti-CD4 mAb (PharMingen, San Diego, Calif.).
# Antigen presenting cells (APCs) were isolated as described in Example 6 and treated with mitomycin C (25 μg/mL) for 1 hour then washed 3 times with PBS. APCs (10^5 cells) were then combined with 4×10^4 CD4+ T cells in 350 μL of culture media. Where indicated, purified CD3 mAb was also added at a concentration of 1 μg/mL. During the last 6 hours of the 48 hour incubation period, proliferation was measured by determining uptake of 1.5 μCi of [^3H]-thymidine per well. The cells were harvested onto filters and the radioactivity measured by scintillation counting.
# human B7-1 = test: Cell surface expression of B7-1 in pcB7-1-transfected COS-7 cells by flow cytometry; type: cell-based; conditions: FIG. 5
# Protocol: The ability of oligonucleotides to inhibit B7-1 expression was evaluated by measuring the cell surface expression of B7-1 in transfected COS-7 cells by flow cytometry.
# A T-175 flask was seeded at 75% confluency with COS-7 cells (ATCC accession No. CRL 1651). The plasmid pcB7-1 was introduced into cells by standard calcium phosphate transfection. Following a 4 hour transfection, the cells were trypsinized and seeded in 12-well dishes at 80% confluency. The cells were allowed to adhere to the plastic for 1 hour and were then washed with phosphate-buffered saline (PBS). OptiMEM™ (GIBCO-BRL, Gaithersburg, Md.) medium was added along with 15 μg/mL of Lipofectin™ (GIBCO-BRL, Gaithersburg, Md.) and oligonucleotide at the indicated concentrations. After four additional hours, the cells were washed with phosphate buffered saline (PBS) and incubated with fresh oligonucleotide at the same concentration in DMEM (Dulbecco et al., Virol., 1959, 8, 396; Smith et al., Virol., 1960, 12, 185) with 10% fetal calf sera (FCS).
# In order to monitor the effects of oligonucleotides on cell surface expression of B7-1, treated COS-7 cells were harvested by brief trypsinization 24-48 hours after oligonucleotide treatment. The cells were washed with PBS, then resuspended in 100 μL of staining buffer (PBS, 0.2% BSA, 0.1% azide) with 5 μL conjugated anti-B7-1-antibody (i.e., anti-hCD80-FITC, Ancell, Bayport, Minn.; FITC: fluorescein isothiocyanate). The cells were stained for 30 minutes at 4° C., washed with PBS, resuspended in 300 μL containing 0.5% paraformaldehyde. Cells were harvested and the fluorescence profiles were determined using a flow cytometer.
# B7 antisense oligonucleotides were tested for their effect on cell surface expression of both B7-1 and B7-2. Cell surface expression was measured as described in Example 1. Experiments were done for both human B7 and mouse B7.
# The oligonucleotides were screened as described in Example 2 except that the concentration of oligonucleotide was varied as shown in Table 18.
# human B7-2 = test: Cell surface expression of B7-2 in transfected COS-7 cells by flow cytometry; type: cell-based
# Method in brief: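 COS-7 cells transfected with B7-2 plasmid (calcium phosphate), then treated with antisense oligonucleotides with 15 μg/mL Lipofectin for 4 h, followed by oligonucleotide in DMEM/10% FCS. After 24-48 h, cells stained with FITC- or PE-conjugated anti-CD86 for 30 min at 4 °C and analysed by flow cytometry.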
# B7-1 = B7-1 cell surface expression in antigen presenting cells, flow cytometry; type: cell-based, human
# Protocol: as §2, §1
# HLA-DR = HLA-DR cell surface expression in antigen presenting cells, flow cytometry; type: cell-based, human
# Protocol: as §2, §1
# CD3 = CD3 cell surface expression in antigen presenting cells, flow cytometry; type: cell-based, human
# Protocol: as §2, §1
# [2] = tested on: ovalbumin-challenged Balb/c mice; test: Ovalbumin-induced mouse model of allergic inflammation (Penh, BAL cells, histology, cytokines, spleen); type: in vivo
# Protocol: In the mouse model of allergic inflammation, mice were sensitized and challenged with aerosolized chicken ovalbumin (OVA). Airway responsiveness was assessed by inducing airflow obstruction with a methacholine aerosol using a noninvasive method. This methodology utilized unrestrained conscious mice that are placed into the main chamber of a plthysmograph (Buxco Electronics, Inc., Troy, N.Y.). Pressure differences between this chamber and a reference chamber were used to extrapolate minute volume, breathing frequency and enhanced pause (Penh). Penh is a dimensionless parameter that is a function of total pulmonary airflow in mice (i.e., the sum of the airflow in the upper and lower respiratory tracts) during the respiratory cycle of the animal. The lower the Penh, the greater the airflow. This parameter closely correlates with lung resistance as measured by traditional invasive techniques using ventilated animals (Hamelmann . . . Gelfand, 1997). Dose-response data were plotted as raw Penh values to increasing concentrations of methacholine. […]
# Female Balb/c mice (Charles Rivers Laboratory, Taconic Farms, N.Y.) were maintained in micro-isolator cages housed in a specific pathogen-free (SPF) facility. […] Animals were analyzed about 24 hours following the last nebulization using the Buxco electronics Biosystem. Lung function (Penh), lung histology (cell infiltration and mucus production), target mRNA reduction in the lung, inflammation (BAL cell type & number, cytokine levels), spleen weight and serum AST/ALT were determined. […]
# Cytospins of cells recovered from BAL fluid were prepared using a Shandon Cytospin 3 (Shandon Scientific LTD, Cheshire, England). […] Total cell counts were quantified by hemocytometer and, together with the percent type by differential, were used to calculate specific cell number.
# Before resection, lungs were inflated with 0.5 ml of 10% phosphate-buffered formalin and fixed overnight at 4° C. […] Parasagittal sections were analyzed by bright-field microscopy. Mucus cell content was assessed as the airway epithelium staining with PAS. […]
# B7.2 mRNA = B7.2 mRNA in lung and draining lymph nodes of ovalbumin-challenged mice, quantitative RT-PCR; type: in vivo, mouse
# Protocol: (§3) RNA was harvested from experimental lungs removed on day 28 of the OVA protocol. B7.2 and B7.1 levels were measured by quantitative RT-PCR using the Applied Biosystems PRISM 7700 Sequence Detection System (Applied Biosystems, Foster City, Calif.). Primers and probes used for these studies were synthesized by Operon Technologies (Alameda, Calif.).
# B7.1 mRNA = B7.1 mRNA in lung and draining lymph nodes of ovalbumin-challenged mice, quantitative RT-PCR; type: in vivo, mouse; conditions: lung tissue and draining lymph nodes of allergen-challenged mice
# Protocol: as §3
# B7-1 mRNA = test: Mouse B7-1 target mRNA reduction in L-929 fibroblasts (RT-PCR); type: cell-based; conditions: 100 nM
# Protocol: Both of these oligonucleotides are phosphorothioates with 2′-MOE modifications on nucleotides 1-5 and 16-20, and 2′-deoxy at positions 6-15. These ASOs were identified by mouse-targeted ASO screening by target mRNA reduction in mouse cell lines. For B7-2, 19 mouse-targeted ASOs were screened by target mRNA reduction (Northern analysis) in IC-21 macrophages. Dose-response confirmation led to selection of ISIS 121874 (>70% reduction at 25 nM). For B7-1, 22 mouse-targeted ASOs were screened by target mRNA reduction (RT-PCR) in L-929 fibroblasts. Dose-response confirmation led to selection of ISIS 121844 (>70% reduction at 100 nM). No cross hybridization was predicted, and no cross-target reduction was detected in transfected cells.
substance,measurement,setting,value
5′-TCCGTCATCGCTCCTCAGGG-3′ [ISIS 13920],deposition pattern in the lung,[1],"taken up throughout the lung, most strongly by antigen presenting cells (APCs) and alveolar epithelium"
"ISIS 2302: antisense oligonucleotide targeted to ICAM-1, an inhibitor of ICAM-1 expression; SEQ ID NO: 17 (antisense GCCCAAGCTGGCATCCGTCA; listed as DNA, chemistry not given here) [reference compound]",effect on B7-2 expression,B7-2,no effect
same,IC50,"ICAM-1; antigen presenting cells, FIG. 6, read-out: IC50, ICAM-1 levels",~250 nM
same,T cell proliferative response,CD4+ T cells,blocked
ISIS 10373: phosphorothioate 20-mer to human B7-2 mRNA 0011-0030; 5′-UTR; SEQ ID NO: 16 (antisense dT*dG*dC*dG*dA*dG*dC*dT*dC*dC*dC*dC*dG*dT*dA*dC*dC*dT*dC*dC),effect on B7-1 expression (specificity),human B7-1,little or no effect
same,effect on B7-2 expression (specificity),human B7-2; FIG. 5,inhibits B7-2 expression
same,IC50,B7-2,~250 nM
same,effect on ICAM-1 expression,ICAM-1; dose of 1 μM,only a slight effect
same,cell surface expression of B7-1,B7-1,did not affect
same,cell surface expression of HLA-DR,HLA-DR,did not affect
same,cell surface expression of CD3,CD3,did not affect
same,T cell proliferative response,CD4+ T cells,blocked
ISIS 10721: scrambled # 10373; SEQ ID NO: 82 (antisense dC*dG*dA*dC*dA*dG*dC*dT*dC*dC*dT*dG*dC*dG*dC*dT*dC*dC*dT*dC) [reference compound],inhibitory activity on B7-2 cell surface expression,"human B7-2; 200 nM, FIG. 3",no inhibitory activity
same,T cell proliferative response,CD4+ T cells,insignificant effect
"ISIS 121844: antisense oligonucleotide targeted to mouse B7.1; SEQ ID NO: 286; phosphorothioate, 2′-MOE on nucleotides 1-5 and 16-20 (antisense GCTCAGCCTTTCCACTTCAG; sugars from the 5' end e5 d10 e5, all phosphorothioate, methylation of C not given here)",allergen-induced airway eosinophilia,[2]; BAL fluid,reduced
same,airway response to methacholine (Penh response),"[2]; intratracheal ASO, days 15-26",no effect
same,PMN numbers in BAL fluid,"[2]; mouse, in vivo",reduced
same,reduction of B7.2 mRNA in the lung,B7.2 mRNA; lung,80%
same,B7.2 mRNA,B7.2 mRNA; lung tissue and draining lymph nodes of allergen-challenged mice,reduced
same,B7.1 mRNA,B7.1 mRNA,reduced
same,target mRNA reduction,B7-1 mRNA,> 70%
